In US12667568B2, “Compositions and methods for the treatment and diagnosis of cancer” (The General Hospital Corporation, priority 2020, dated 2026):

Columns and labels:
Assay type in all cases: cell-based
[1] = target: T1, TRDMT1 (Homo sapiens, UniProt O14717); experiment: m5C staining at TA-KR DNA damage sites
T1 construct: SCE WT cells were transfected with TA-KR and were cultured with 2.5 μM/L compound YW-1842 or not for 6 hours; endogenous in cells
T1 sequence (O14717 1-391): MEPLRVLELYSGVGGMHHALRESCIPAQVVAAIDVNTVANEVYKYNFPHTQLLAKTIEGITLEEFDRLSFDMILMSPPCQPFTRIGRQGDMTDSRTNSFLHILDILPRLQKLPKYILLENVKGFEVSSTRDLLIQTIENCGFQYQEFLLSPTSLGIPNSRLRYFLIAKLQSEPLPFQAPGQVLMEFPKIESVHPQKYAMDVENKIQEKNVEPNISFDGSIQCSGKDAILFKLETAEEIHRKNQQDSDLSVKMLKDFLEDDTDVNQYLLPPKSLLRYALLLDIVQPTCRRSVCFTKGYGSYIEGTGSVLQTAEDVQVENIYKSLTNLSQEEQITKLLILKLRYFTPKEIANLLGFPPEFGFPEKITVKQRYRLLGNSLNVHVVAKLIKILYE
Description: (§1) FIGS. 6A-6E show TRDMT1 Inhibitors specifically sensitizes cells to DNA damage agents. (FIG. 6A) SCE WT cells were transfected with TA-KR and were cultured with 2.5 μM/L compound YW-1842 or not for 6 hours, m^5C (n=3, 50 cells per replicated, Mean±SD) was stained and quantified. DR-GFP (FIG. 6B) or EJ5-GFP (FIG. 6C) cells were pre-treated with 2.5 μM/L compound YW-1842 for 6 h or TRDMT1 siRNA for 48 h, or DMSO. Then the cells were transfected with NLS-I-SceI plasmid to induce DSB. The efficiency of HR (FIG. 6B) or NHEJ (FIG. 6C) was analyzed by flow-cytometry (n=3, Mean f SD). (FIG. 6D) After seeding, MCF-7, HCC1954, and HCC1937 cells were pre-treated with or without 2.5 μM/L compound YW-1842 for 6 h, then cultured with chemotherapy drugs (1 μM/L Cisplatin; 1 μM/L ATRi AZ20; […]; 1 μM/L PARPi Olaparib for 10 days. The survival rate of these cells was analyzed (n=3, Mean±SD). (FIG. 6E) TRDMT1 KO U2OS cells were transfected with GFP-TRDMT1^WT or GFP-TRDMT1^G155V with or without 2.5 μM/L compound YW-1842, the survival rate of these cells after IR or Cisplatin was shown (n=3, Mean±SD).
The Olympus FV1000 confocal microscopy system (Cat. FIOPRDMYR-1, Olympus) and FV1000 software were used for the acquisition of images. Cells were cultured in 35 mm glass-bottom dishes (MatTek, P35GC-1.5-14-C) before observation. […] The intensity was measured by ImageJ 1.52i software. […]

[2] = tested on: TRDMT1 KO U2OS cells; experiment: Cell survival assay in TRDMT1 KO cells after IR or Cisplatin; details: 2.5 μM/L
Description: as §1
Approximately 500 U2OS/TRDMT1 KO U2OS/MCF-7/HCC1954/HCC1937 cells and TRDMT1 siRNA or GFP-TRDMT1 WT/G155V/K251R transfected cells were seeded in 6 cm dish with or without TRDMT1 inhibitors (2.5 μM/L). […]

[3] = tested on: U2OS (DR-GFP) cells; experiment: DR-GFP HR reporter assay; details: 2.5 μM/L, 6 h pre-treatment, versus DMSO
Description: as §1
Using a previously described method[Lan, L. et al. The ACF1 complex is required for DNA double-strand break repair in human cells. […] The GFP signal arising from the recombination (HR) or non-homologous end joining (NHEJ) events were measured by flow cytometry.

[4] = tested on: HST578, MBAMD231, HCC1937, HCC1954 cancer cells; experiment: Cell survival assay, TRDMT1i alone (Example 19)
Description: FIGS. 14A-14C show TRDMT1i alone reduce cancer cell survival in a dose-dependent manner. (FIG. 14A) Survival rate of HR proficient (HR+) HST578 cancer cells with and without siBRCA1 and/or TRDMT1i YW-1842 at indicated dose. The survival rate of these cells was analyzed (n=3, Mean±SD). (FIG. 14B) Survival rate of MBAMD231 (HR+) and HCC1937 (HRD) cells. The survival rate of these cells was analyzed (n=3, Mean±SD). (FIG. 14C) Cell survival rate in different cancer cell lines via colony-forming assay with the treatment of Imatinib at indicated dose (n=3, mean+/−S.D.). Cell lines are listed in order with the expression level from SYCP2high to SYCP2low.
Cells were seeded in each 6-cm dish and cultured as described above. They were treated with drugs with indicated dose in medium after seeding. After 7-10 days, colonies were fixed and stained with 0.3% crystal violet in methanol, and the number of colonies was counted manually.

COc1cc2nc(-n3cc(-c4ccc(S(C)(=O)=O)cc4)cn3)nc(-c3ccsc3)c2cc1OC [YW-1842, 6,7-dimethoxy-2-(4-(4-(methylsulfonyl)phenyl)-1H-pyrazol-1-yl)-4-(thiophen-3-yl)quinazoline]
m^5C inhibitory activity ([1]; 2.5 μM/L, 6 hours, TA-KR sites (FIG. 6A)): almost equivalent to TRDMT1 depletion
inhibiting TRDMT1 recruitment, m^5C formation and HR efficiency at DNA damage sites ([1]; summary statement): performed well
sensitization of TRDMT1 KO cells to IR or Cisplatin [2]: does not sensitize TRDMT1 KO
HR-mediated repair of I-SceI-generated DSBs (DR-GFP) [3]: diminished the repair of I-SceI-generated DSBs
sensitivity of HR deficient cells to TRDMT1i alone ([4]; HCC1937 (HRD) versus MBAMD231 (HR+)): more sensitive
killing of HCC1954 ([4]; HCC1954, HRD, high SYCP2): efficiently killed HCC1954
cancer cell survival, TRDMT1i alone ([4]; HR-proficient HST578 cells): kills HR-proficient cancer cells HST578 in a dose-dependent manner
TRDMT1i sensitivity on BRCA1 knockdown ([4]; HST578 cells with siBRCA1): significantly increased TRDMT1i sensitivity
killing across cancer cell lines by SYCP2 level and HR status ([4]; cell lines ordered SYCP2high to SYCP2low (FIG. 14C)): killed SYCP2-high cancer cell lines and HR deficient cells the most efficiently
